Reference: PMC5428521, “Identification of a Novel, Small Molecule Partial Agonist for the Cyclic AMP Sensor, EPAC1” (Scientific Reports, 2017)

Experiments:
EPAC1-CNB = target: T1, EPAC1-CNB (Homo sapiens, UniProt O95398); assay: Ligand observed NMR (1D and waterLOGSY) with EPAC1-CNB; assay type: binding; conditions: compound 50 µM, protein 2.5 µM
T1 construct: EPAC1-CNB (amino acids 169–318 of EPAC1); made in house; host or cells: BL-21 Escherichia coli (pGEX-6P-1)
T1 sequence (O95398 169-318 isoform O95398-3): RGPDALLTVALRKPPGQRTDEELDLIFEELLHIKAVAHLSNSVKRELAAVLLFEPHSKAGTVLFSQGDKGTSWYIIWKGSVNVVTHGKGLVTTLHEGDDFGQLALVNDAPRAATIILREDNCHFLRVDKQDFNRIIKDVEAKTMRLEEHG
Source text: (§1) Given that I942 seems to exert selective agonist properties against EPAC1, but not EPAC2, we next sought to validate whether our isolated ligands can interact with EPAC1 and EPAC2. Ligand observed nuclear magnetic resonance (NMR) is a valuable tool for the identification and validation of small molecule ligands. We therefore used one dimensional proton (1D) and water-ligand observed by gradient spectroscopy (waterLOGSY) NMR to confirm the ability of I942 and I178 to bind to the purified CNBs of EPAC1 and EPAC2, in comparison with the commercially available EPAC1 antagonist, ESI-09[32]. In order to assess ligand/CNB interaction, 1D and waterLOGSY experiments were performed on each compound (50 µM) in the presence or absence of 2.5 µM EPAC-CNB. In the absence of protein, each test compound produced a well-resolved 1D spectrum and a region of each spectrum was chosen to display distinctive spectral peaks originating from the ligand (Fig. 6). In the absence of protein, the corresponding waterLOGSY peaks were small, or absent, due to the negligible signal produced by saturation transfer from water to the freely tumbling small molecule. […] In waterLOGSY spectra, protein-mediated saturation transfer can only occur if the protein-ligand complex has a substantial lifetime. […]
(§2) (A) One dimensional proton (1D) and waterLOGSY (WL) spectra were performed on samples containing hit compound I942 (50 µM) in the absence and presence of EPAC1-CNB, EPAC2-CNB or GST alone, as indicated (2.5 µM). […] Interaction between compound and protein was assessed through comparison of the compound alone and protein-compound sample spectra. […]
(§3) All NMR spectra were recorded on a Bruker AVANCE IIIHD 600 spectrometer equipped with a TCI cryoprobe at 285 K. Test compounds were prepared in deuterated DMSO and diluted to given experimental concentrations in NMR buffer (20 mM Na2PO4, pH 7.0, 50 mM NaCl, 0.1% (w/v) NaN3, 5% (v/v) D2O) with a final DMSO concentration below 0.1%. […] One dimensional proton (1D) and waterLOGSY spectra were recorded for all compounds tested, using pulse sequences as previously described. […]

GST = GST (Schistosoma japonicum, UniProt P08515); assay: Ligand observed NMR (1D and waterLOGSY) with GST alone; assay type: binding; conditions: compound 50 µM, GST 2.5 µM
Source text: as §1, §2, §3

EPAC2-CNB = target: T2, EPAC2-CNB (Mus musculus, UniProt Q9EQZ6); assay: Ligand observed NMR (1D and waterLOGSY) with EPAC2-CNB; assay type: binding; conditions: compound 50 µM, protein 2.5 µM
T2 construct: EPAC2-CNB (amino acids 304–453 of EPAC2); made in house; host or cells: BL-21 Escherichia coli (pGEX-6P-1)
T2 sequence (Q9EQZ6 304-453 isoform Q9EQZ6-3): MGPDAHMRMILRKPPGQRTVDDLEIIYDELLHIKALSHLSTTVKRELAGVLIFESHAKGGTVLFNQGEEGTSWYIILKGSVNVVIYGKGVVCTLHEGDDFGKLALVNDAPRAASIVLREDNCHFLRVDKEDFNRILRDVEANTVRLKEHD
Source text: as §1, §2, §3

protein kinase A (PKA) = assay: PKA kinase activity assay in HEK293T cell extracts; assay type: biochemical; conditions: 1 mM cAMP, compound 0.1 to 100 µM
Protocol: PKA activity was measured directly in cell extracts using the PKA Kinase Activity Assay Kit (Abcam) following the manufacturer's instructions. […] Cells were washed in ice-cold PBS containing phosphatase inhibitors, scrapped into Eppendorf tubes and centrifuged at 200 × g at 4 °C for 5 minutes. Supernatants were discarded and the cell pellet was re-suspended in Complete Lysis Buffer containing 1 mM DTT, 1 mM PMSF and protease inhibitor cocktail (Roche) and then incubated for 10 minutes on ice (on the rocking platform) followed by vortex and centrifugation at […] at 4 °C for 20 minutes. Cell extracts were then transferred to fresh Eppendorf tubes, assayed for protein content and then stored at -80 °C. […] Next, 10 μl of ATP was added to each well and incubated at 30 °C for 90 min, with gentle shaking. The reaction was stopped by aspirating the contents of each well and then 40 μl of PKA phosphospecific substrate antibody was added to each well and then the plate was covered with plastic wrap and incubated at room temperature for 60 min (with gentle shaking every 20 min). […] Fluorescence was then measured at 480/530 nm. […] PKA activity was then measured in the cell extracts using an ELISA assay according to the manufactures instructions. […]

GST, sequence (P08515 whole entry): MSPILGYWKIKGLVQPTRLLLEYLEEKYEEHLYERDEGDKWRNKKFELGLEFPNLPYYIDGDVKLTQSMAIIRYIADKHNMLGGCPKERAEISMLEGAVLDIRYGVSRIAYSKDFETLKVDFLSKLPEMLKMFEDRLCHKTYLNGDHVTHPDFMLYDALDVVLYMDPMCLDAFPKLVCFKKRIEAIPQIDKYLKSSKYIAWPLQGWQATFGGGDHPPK

`O=C(COc1ccc2ccccc2c1)NS(=O)(=O)c1ccccc1` [I178, N-(benzenesulfonyl)-2-(naphthalen-2-yloxy)acetamide] was tested, and the NMR interaction (EPAC1-CNB) was “Strong, Specific Interaction”, the “NMR interaction with GST alone” value (GST) was “No peak broadening” and the NMR interaction (EPAC2-CNB) was “Weak, specific interaction”.
For `Cc1ccc(S(=O)(=O)NC(=O)COc2ccc3ccccc3c2)c(C)c1` [I942, N-(2,4-dimethylbenzenesulfonyl)-2-(naphthalen-2-yloxy)acetamide], the NMR interaction (EPAC1-CNB) was “Strong, Specific Interaction”, the “NMR interaction with GST alone” value (GST) was “No peak broadening” and the NMR interaction (EPAC2-CNB) was “Strong, Specific Interaction”. For the same molecule, the “effect on PKA activity induced by cAMP” value (protein kinase A (PKA)) was “did not significantly affect PKA activity”.
